# System: Alternaria solani
# Assay: Activity against early blight on tomatoes caused by Alternaria solani
# Format: in vivo
# Details: 250 ppm, tomato plants, protective spray, assessed after 5 days; untreated plants 90% infected
# Method: The active compounds were separately or jointly prepared as a stock solution comprising 25 mg of active compound which was made up to 10 ml using a mixture of acetone and/or dimethylsulfoxide and the emulsifier Uniperol® EL (wetting agent having emulsifying and dispersing action based on ethoxylated alkylphenols) in a volume ratio of solvent/emulsifier of 99 to 1. The mixture was then made up with water to 100 ml. This stock solution was diluted with the solvent/emulsifier/water mixture described to the desired concentration of active compounds.
# Leaves of potted tomato plants of the cultivar “Goldene Königin” were sprayed to runoff point with an aqueous suspension having the concentration of active compounds stated below. The next day, the leaves were infected with an aqueous spore suspension of Alternaria solani in a 2% biomalt solution having a density of 0.17×10^6 spores/ml. The plants were then placed in a water vapor-saturated chamber at temperatures between 20 and 22° C. After 5 days, the disease on the untreated, but infected control plants had developed to such an extent that the infection could be determined visually in %.
row,SMILES,infection [%]
1,"Cc1nn(C)cc1C(=O)Nc1ccccc1OC(F)(F)C(F)F [N-[2-(1,1,2,2-tetrafluoroethoxy)phenyl]-1,3-dimethylpyrazol-4-yl-carboxamide]",60

# System: Erysiphe [syn. Blumeria] graminis forma specialis. tritici
# Assay: Activity against mildew of wheat caused by Erysiphe [syn. Blumeria] graminis forma specialis. tritici
# Format: in vivo
# Details: 63 ppm, wheat seedlings, protective spray, assessed after 7 days; untreated plants 90% infected
# Method: The active compounds were separately or jointly prepared as a stock solution comprising 25 mg of active compound which was made up to 10 ml using a mixture of acetone and/or dimethylsulfoxide and the emulsifier Uniperol® EL (wetting agent having emulsifying and dispersing action based on ethoxylated alkylphenols) in a volume ratio of solvent/emulsifier of 99 to 1. The mixture was then made up with water to 100 ml. This stock solution was diluted with the solvent/emulsifier/water mixture described to the desired concentration of active compounds. Leaves of potted wheat seedlings were sprayed to runoff point with an aqueous suspension having the active compound concentration stated below. The suspension was prepared as described above. 24 hours after the spray coating had dried on, the plants were dusted with spores of mildew of wheat (Erysiphe [syn. Blumeria] graminis forma specialis. tritici). The test plants were then placed in a greenhouse at temperatures between 20 and 24° C. and at 60 to 90% relative atmospheric humidity. After 7 days, the extent of the mildew development was determined visually in % infection of the entire leaf area.
row,SMILES,infection [%]
1,"Cn1cc(C(=O)Nc2ccccc2OC(F)(F)C(F)F)c(C(F)(F)F)n1 [N-[2-(1,1,2,2-tetrafluoroethoxy)phenyl]-3-trifluormethyl-1-methylpyrazol-4-yl-carboxamide]",70

# Same assay, conditions: 250 ppm, wheat seedlings, protective spray, assessed after 7 days; untreated plants 80% infected
row,SMILES,infection [%]
1,"Cn1cc(C(=O)Nc2ccccc2OC(F)(F)C(F)F)c(C(F)(F)F)n1 [N-[2-(1,1,2,2-tetrafluoroethoxy)phenyl]-3-trifluormethyl-1-methylpyrazol-4-yl-carboxamide]",40

# System: not given
# Assay: not given
# Details: not given
row,SMILES,melting point [°C]
1,"Cn1cc(C(=O)Nc2ccccc2OC(F)(F)C(F)C(F)(F)F)c(C(F)(F)F)n1 (stereo not drawn) [Compound I-1, N-[2-(1,1,2,3,3,3-Hexafluoropropoxy)phenyl]-1-methyl-3-trifluoromethyl-1H-pyrazole-4-carboxamide]",91 to 93
2,"Cn1cc(C(=O)Nc2ccccc2OC(F)(F)C(F)Cl)c(C(F)(F)F)n1 (stereo not drawn) [Compound I-3, N-[2-(2-Chloro-1,1,2-trifluoroethoxy)phenyl]-1-methyl-3-trifluoromethyl-1H-pyrazole-4-carboxamide]",94 to 95
3,"Cn1cc(C(=O)Nc2ccccc2OC(F)(F)C(F)Cl)c(C(F)F)n1 (stereo not drawn) [Compound I-4, N-[2-(2-chloro-1,1,2-trifluoroethoxy)phenyl]-3-difluoromethyl-1-methyl-1H-pyrazole-4-carboxamide]",110 to 111
4,"Cn1cc(C(=O)Nc2ccccc2OC(F)(F)C(F)F)c(C(F)F)n1 [Compound I-5, N-[2-(1,1,2,2-tetrafluoroethoxy)phenyl]-3-difluoromethyl-1-methyl-1H-pyrazole-4-carboxamide]",117 to 119
5,"Cc1nc(C(F)(F)F)c(C(=O)Nc2ccccc2OC(F)(F)C(F)F)s1 [Compound I-6, N-[2-(1,1,2,2-tetrafluoroethoxy)phenyl]-2-methyl-4-trifluoromethylthiazol-5-yl-carboxamide]",118 to 120
6,"Cc1nc(C)c(C(=O)Nc2ccccc2OC(F)(F)C(F)F)s1 [Compound I-7, N-[2-(1,1,2,2-tetrafluoroethoxy)phenyl]-2,4-dimethylthiazol-5-ylcarboxamide]",134 to 135
7,"Cc1nc(C(F)(F)F)c(C(=O)Nc2ccccc2OC(F)(F)C(F)C(F)(F)F)s1 (stereo not drawn) [Compound I-8, N-[2-(1,1,2,3,3,3-hexafluoropropoxy)phenyl]-2-methyl-4-trifluoromethylthiazole-5-carboxamide]",70 to 71
8,"Cc1nc(C(F)(F)F)c(C(=O)Nc2ccccc2OC(F)(F)C(F)Cl)s1 (stereo not drawn) [Compound I-9, N-[2-(2-chloro-1,1,2-trifluoroethoxy)phenyl]-2-methyl-4-trifluoromethylthiazole-5-carboxamide]",80 to 81
9,"Cc1nc(C(F)F)c(C(=O)Nc2ccccc2OC(F)(F)C(F)C(F)(F)F)s1 (stereo not drawn) [Compound I-11, N-[2-(1,1,2,3,3,3-hexafluoropropoxy)phenyl]-4-difluoromethyl-2-methylthiazole-5-carboxamide]",89 to 92
10,"O=C(Nc1ccccc1OC(F)(F)C(F)F)c1cccnc1Cl [Compound I-12, N-[2-(1,1,2,2-tetrafluoroethoxy)phenyl]-2-chloronicotinamide]",126 to 128
11,"O=C(Nc1ccccc1OC(F)(F)C(F)C(F)(F)F)c1cccnc1Cl (stereo not drawn) [Compound I-13, N-[2-(1,1,2,3,3,3-hexafluoropropoxy)phenyl]-2-chloronicotinamide]",85 to 91
12,"O=C(Nc1ccccc1OC(F)(F)C(F)Cl)c1cccnc1Cl (stereo not drawn) [Compound I-14, N-[2-(2-chloro-1,1,2-trifluoroethoxy)phenyl]-2-chloronicotinamide]",73 to 76

# Reference: patent US20100222217A1, “Fungicidal N-[2-(Haloalkoxy)Phenyl]Heteroarylcarboxamides” (priority 2005, published 2010)
